In patent publication US20030224446A1, “Method of predicting cytokine response to tissue injury” (priority 2001, published 2003):
“Also recorded” adds a separate entry of the source.

Experiments:
[1] = tested on: hippocampal dentate granule cells; assay: Hematoxylin and eosin staining of hippocampus 24 h after TMT; assay type: in vivo, mice
Description: (§1) Food and water were available ad libitum.
(§2) Based upon previous studies with TMT exposure (Bruccoleri et al., 1998, 1999), a minimum of six mice per group were examined for morphological changes in the hippocampus 24 h following injection. Animals were lightly anesthetized with CO2 and decapitated and brains were removed from the cranium, bisected in the midsagittal plane, and immersion-fixed in 4% paragormaldehyde/0.1 M phosphate-buffered saline (PBS; pH 7.2) overnight at room temperature. Eight-micron paraffin-embedded sections were stained by routine hematoxylin and eosin (H&E) to visualize tissue cellularity. Astrocytes were identified by immunohistochemistry using polyclonal glial fibrillary acidic protein (GFAP) antibodies (Dako Corp., Carpinteria, Calif.). Briefly, rehydrated sections were treated with 3% H2O2, subjected to heat-induced epitope retrieval (HIER) using a decloaking chamber (Biocare Medical, Walnut Creek, Calif.), and incubated with nonimmune goat serum (1.5:100 dilution in 1% BSA/PBS) prior to incubation with rabbit anti-rat GFAP (1:2000 in 1:1 solution of 1% BSA and 1% powered milk in PBS). Sections were incubated with a secondary IgG antibody followed by ABC (avidin-biotin complex) reagent (Vectastain Elite, Vector Laboratories, Burlingame, Calif.) and detected by 3,3′-diaminobenzidine tetrahydrochloride (DAB) substrate (Sigma-Aldrich Research, St. Louis, Mo.). Microglia cells were identified by lectin binding (Bandeiraea Simplicifolia BS-4, 1:10; Sigma Chemical Co.; St. Louis, Mo.) by the method of Streit and Kreutzberg (1987) using HIER. Sites containing microglia bound peroxidase-lectin conjugates were visualized by DAB-H2O2 substrate containing CO2 ions.

[2] = tested on: astrocytes (GFAP immunoreactivity); assay: GFAP immunohistochemistry of astrocytes in hippocampus 24 h after TMT; assay type: in vivo, mice
Description: as §1, §2

microglia = assay: Lectin histochemistry for microglia in hippocampus 24 h after TMT; assay type: in vivo; conditions: 24 h post-TMT, wild-type, APOE knockout and APOE4 mice
Description: as §1
as §2, with “Microglia cells were identified by lectin binding (Bandeiraea Simplicifolia BS-4, 1:10; Sigma Chemical Co.; St. Louis, Mo.) by the method of Streit and Kreutzberg (1987) using HIER. Sites containing microglia bound peroxidase-lectin conjugates were visualized by DAB-H2O2 substrate containing CO2 ions.” left out

[3] = tested on: ICAM-1, iNOS, A20, Mac-1, EB22/5 and GFAP mRNA; assay: RNase protection assay, host-response gene probe set, hippocampus; assay type: in vivo, mice; conditions: 24 h; for mRNA levels for Mac-1, A20, and iNOS: any group of mice
Description: as §1
(§3) Based upon earlier studies with TMT exposure (Bruccoleri et al., 1998, 1999), Rnase protection assays were conducted at 24-h post-TMT. Multiprobe sets were used for simultaneous detection of mRNAs as previously described (Hobbs, 1993; Bruccoleri et al., 1999). The first set, provided by Dr. Iain Campbell (Scripps Research Institute, San Diego, Calif.), contained probes for intercellular adhesion molecule-1 (ICAM-1), inducible nitric oxide synthase (iNOS), an anti-apoptotic TNFα-inducible early response gene (A20), macrophase-1 antigen (Mac-1), a murine acute-phase response gene homologous to the α-1-antichymotrypsin gene (EB22/5), and GFAP as previously described (Campbell et al., 1994). The second set was purchased from Pharmingen (San Diego, Calif.) and contained probes for tumor necrosis factor-β (TNFβ) and -α (TNFα), interleukin-1α (IL-1α), macrophage inflammatory protein-1α (MIP-1α), and transforming growth factor-β1 (TGF-β1). Each probe set contained probes for L32 and GAPDH. A minimum of 4 animals per group was used in each experiment. Individual fragments were separated by 5% acrylamide/8 M urea sequencing gel electrophoresis and visualized by autoradiography (Hyperfilm-MP film; Amersham, Buckinghamshire, U.K.). Radioactivity in each fragment was visualized by phosphorimager (Molecular Dynamics, Sunnyvale, Calif.) and relative volume determined using Imagequant (Molecular Dynamics) and normalized relative to the corresponding L32 volume.
(§4) Subsequent independent group mean comparisons between each saline-injected genotype or between TMT and saline-injected mice, within each genotype, were conducted using individual one-way ANOVAs for each gene transcript. A statistical significance level was set at p<0.05.

[4] = tested on: TNFβ, TNFα, IL-1α, MIP-1α and TGF-β1 mRNA; assay: RNase protection assay, cytokine probe set, hippocampus; assay type: in vivo, mice; conditions: for increase of MEP-1α mRNA levels: vs saline
Description: as §1, §3, §4

[5] = tested on: TNFβ, TNFα, IL-1α, MIP-1α and TGF-β1 mRNA; assay: RNase protection assay, cytokine probe set, cortex; assay type: in vivo, mice; conditions: 24 h
Description: as §1, §3, §4
Given the genotype-specific effects in the hippocampus of 8-month-old mice following TMT, additional brain regions were examined. In the cortex, TMT exposure elevated mRNA levels for TNFα and TGF-β1 in the wild-type mice with no elevation seen in the APOE knockout or APOE4 mice (FIG. 7). MIP-1α mRNA levels in both wild-type and APOE4 mice were elevated by TMT with no elevation in APOE knockout mice (FIG. 7).

[6] = tested on: TNFβ, TNFα, IL-1α, MIP-1α and TGF-β1 mRNA; assay: RNase protection assay, cytokine probe set, cerebellum; assay type: in vivo; conditions: 8-month-old mice, 24 h
Description: as §1
as §3, with “Individual fragments were separated by 5% acrylamide/8 M urea sequencing gel electrophoresis and visualized by autoradiography (Hyperfilm-MP film; Amersham, Buckinghamshire, U.K.).” left out, “volume. […]” for “volume.”

[7] = tested on: wild-type, APOE knockout and APOE4 mice; assay: Systemic toxicity (tremor, seizures, survival) after a single i.p. dose of TMT
[8] = 21-day-old wild-type and APOE knockout mice
[9] = 8-month-old APOE knockout mice, hippocampus, 24 h
[10] = 8-month-old, all animals, hippocampus, 24 h

With `[CH3][Sn]([CH3])([CH3])[OH]` [TMT, trimethyltin hydroxide] the “neuronal necrosis in dentate granule cells (FIG. 1)” value ([1]; TMT-exposed wild-type, APOE knockout and APOE4 mice, 2 mg/kg ip, 24 h) was “Severe neuronal necrosis”, the “neuronal cell death in the hippocampus (dentate granule cells)” value ([1]; wild-type mice, 24 h after TMT) was “neuronal cell death was evident” and the “neurons of the pyramidal cell layer” value ([1]; wild-type mice, 24 h after TMT) was “no indication of neuronal cell death”. The “astrocyte morphology (FIG. 2)” value ([2]; 24 h after TMT 2.0 mg/kg ip, compared with saline) was “thick cell bodies and processes characteristic of astrocyte reactivity”, the “GFAP immunoreactivity in astrocytes” value ([2]; APOE knockout and APOE4 mice, 24 h after TMT) was “slight increase in GFAP immunoreactivity” and the GFAP immunostaining ([2]; wild-type mice, 24 h after TMT) was “little change”. The “reactive/activated microglia by lectin histochemistry” value (microglia) was “did not detect reactive/activated microglia”, the “EB22 mRNA levels” value ([3]; 8-month-old APOE knockout and APOE4 mice) was “elevation” and the “EB22 mRNA levels” value ([3]; 8-month-old wild-type mice) was “No elevation”. The “GFAP mRNA levels” value ([3]; 8-month-old, all groups of mice) was “elevation”, the “mRNA levels for Mac-1, A20, and iNOS” value ([3]; 8-month-old) was “not altered” and the “EB22 mRNA levels” value ([3]; 21-day-old APOE4 mice) was “no elevation”. For the same compound, the “EB22 mRNA levels” value [3, 8] was “significant (p<0.05) elevation”, the “GFAP mRNA levels” value [3, 8] was “significantly elevated” and the “ICAM-1 mRNA levels” value ([3]; 21-day-old, all mice, vs saline) was “slight but significant elevation”. The “mRNA levels for Mac-1, A20, and iNOS” value ([3]; 21-day-old) was “not altered”, the “increase of MEP-1α mRNA levels” value ([4]; 8-month-old APOE4 mice, hippocampus, 24 h) was 3 fold and the “elevation in MIP-1α mRNA compared to the response in wild-type mice” value ([4]; 8-month-old APOE knockout mice) was “less elevation”. For the same compound, the “TNFα mRNA level” value [4, 9] was “distinct lack of elevation; also recorded: No elevation”, the “increase of MEP-1α mRNA levels” value [4, 9] was 1.3 fold and the “TNFα mRNA levels” value ([4]; 8-month-old wild-type and APOE4 mice, hippocampus, 24 h) was “elevated”. For the same compound, the “increase of MEP-1α mRNA levels” value ([4]; 8-month-old wild-type mice, hippocampus, 24 h) was 3.5 fold, the “MIP-1α mRNA levels relative to saline-injected mice” value [4, 10] was “significant (p<0.05) elevations” and the “mRNA levels for TNFβ, IL-1α, or TGF-β1” value [4, 10] was “No significant elevations”. For the same compound, the “IL-1α mRNA levels” value ([4]; 21-day-old APOE knockout and APOE4 mice, hippocampus, 24 h) was “elevated”, the “TNFα and TGF-β1 mRNA levels” value ([4]; 21-day-old wild-type and APOE knockout mice, hippocampus, 24 h) was “significantly elevated” and the “MIP-1α mRNA levels” value ([4]; 21-day-old, all mice, hippocampus, 24 h) was “elevations”. The “induction of TNFα, IL-1α, and MIP-1α by TMT” value ([4]; APOE knockout mice (discussion)) was “lack of an induction”, the “induction of TGF-β1” value ([4]; APOE knockout mice or those containing the E4 allele, following TMT (discussion)) was “lack of an induction” and the “MIP-1α mRNA levels” value ([5]; 8-month-old APOE knockout mice) was “no elevation”. The “mRNA levels for TNFα and TGF-β1” value ([5]; 8-month-old APOE knockout or APOE4 mice) was “no elevation”, the “MIP-1α mRNA levels” value ([5]; 8-month-old wild-type and APOE4 mice) was “elevated” and the “mRNA levels for TNFα and TGF-β1” value ([5]; 8-month-old wild-type mice) was “elevated”. For the same compound, the “mRNA levels for TNFβ, TNFα, IL-1α, MIP-1α, and TGF-β1” value [6] was “no effect”, the “decrease in survival rate” value ([7]; APOE4 mice, 8 months of age, compared to APOE knockout and wild-type) was roughly 40% and the “decrease in survival rate” value ([7]; APOE4 mice, 21 days of age, 2.0 mg/kg i.p.) was 20%. For the same compound, the “decrease in survival rate” value ([7]; APOE knockout mice, 21 days of age, 2.0 mg/kg i.p.) was 10% and the aggressiveness or seizures ([7]; any of the mice exposed to TMT) was “No signs of aggressiveness or seizures”.
